Values of other authors as cited in patent publication US20230134521A1, “COMPOUNDS FOR METHODS FOR PROMOTING FEMALE REPRODUCTIVE HEALTH THROUGH MEDIATION OF RENIN ANGIOTENSIN FUNCTION” (priority 2021, published 2023).
Ends that are not written are not given here.

Assays:
[1] = tested on: pre-menopausal women with SIAD related disorders (hypoactive sexual desire disorder)
[2] = tested on: rabbit clitoral cavernosal and vaginal smooth muscle strips; conditions: organ bath; for relaxation of clitoral and vaginal smooth muscle: female rabbit clitoral (cavernosal) and vaginal smooth muscle
[3] = tested on: female sexual health, performance or libido; conditions: doses administered to women

Compound	improvement to sexual health, performance or libido in women [3]	relaxation of clitoral and vaginal smooth muscle [2]	further results
O=c1[nH]c2ccccc2n1CCN1CCN(c2cccc(C(F)(F)F)c2)CC1 [Flibanserin, 2H-benzimidazol-2-one, 1,3-dihydro-1-[2-[4-[3(tri-fluoromethyl)phenyl]-1-piperazinyl]ethyl]]	–	–	share of women in whom the benefit was seen ([1]; 100 mg daily for a minimum of 28 days): 18%; therapeutic effect on Genitopelvic Pain/Penetration Disorder (vestibulodynia, dyspareunia) or Female Orgasmic Disorder ([1]; human, in vivo): no therapeutic effect at all; median placebo-corrected increase in satisfying sexual events (SSEs) ([1]; median baseline about 2-3 SSEs per month, over a six month period): 0.5-1.0 SSEs per month
N=C(N)NCCC[C@H](N)C(=O)O [L-arginine]	–	–	relaxation of clitoral cavernosal smooth muscle strips in response to NO donors ([2]; rabbit clitoral cavernosal smooth muscle strips): enhanced relaxation
CCCc1nc(C)c2c(=O)[nH]c(-c3cc(S(=O)(=O)N4CCN(CC)CC4)ccc3OCC)nn12 [Levitra]	without improvement	–	–
CCCc1nn(C)c2c(=O)[nH]c(-c3cc(S(=O)(=O)N4CCN(C)CC4)ccc3OCC)nc12 [Viagra]	without improvement	–	–
CCCc1nn(C)c2c(=O)[nH]c(-c3cc(S(=O)(=O)N4CCN(C)CC4)ccc3OCC)nc12 [sildenafil]	–	dose-dependent relaxation	–
vasoactive intestinal polypeptide (HSDAVFTDNYTRLRKQMAVKKYLNSILN; ends and bridges not checked; UniProt P01282 125-152, looked up) [VIP, nonadrenergic/noncholinergic neurotransmitter]	–	dose-dependent relaxation	–
